Measurements: ChEMBL document CHEMBL1201862, “PubChem BioAssay data set” (2004)
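Where inhibition never reached the appropriate level, the endpoint shown equals the highest concentration tested. Otherwise, values were interpolated linearly from a five-concentration, 48-hour dose response in 96-well plates. GI50: concentration for 50% inhibition of growth.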 The source made the active and inactive calls. Cut-off read from the data, not from the text of the source: active = GI50 up to about 1.1 µM and inactive = higher.

Key:
Assay in all cases: NCI anticancer screen, dose series, 48 h
MDA-MB-231 = tested on: MDA-MB-231
MDA-MB-435 = tested on: MDA-MB-435
NCI-H460 = tested on: NCI-H460
NCI-H23 = tested on: NCI-H23
SF-268 = tested on: SF-268
RXF 393 = tested on: RXF 393
T47D = tested on: T47D
K562 = tested on: K562
MCF7 = tested on: MCF7
SK-MEL-28 = tested on: SK-MEL-28
OVCAR-5 = tested on: OVCAR-5
BT-549 = tested on: BT-549
HOP-92 = tested on: HOP-92
HT-29 = tested on: HT-29
LOX IMVI = tested on: LOX IMVI
786-0 = tested on: 786-0
HCC 2998 = tested on: HCC 2998

Measured: GI50

CCOC(=O)C1CCC(=O)N1C(=O)c1cccc(Cl)c1 (centres undefined)
inactive: MDA-MB-231 > 100 µM | MDA-MB-435 > 100 µM | NCI-H460 > 100 µM | NCI-H23 > 100 µM | SF-268 > 100 µM | RXF 393 > 100 µM | T47D > 100 µM | K562 > 100 µM | MCF7 > 100 µM | SK-MEL-28 > 100 µM | OVCAR-5 > 100 µM | BT-549 > 100 µM | HOP-92 > 100 µM | HT-29 > 100 µM | LOX IMVI > 100 µM | 786-0 > 100 µM

COP(=O)(OC)C(C)(C)NC(=O)NC(F)(F)F
inactive: MDA-MB-231 > 100 µM | MDA-MB-435 > 100 µM | NCI-H460 > 100 µM | NCI-H23 > 100 µM | SF-268 > 100 µM | RXF 393 > 100 µM | T47D > 100 µM | K562 > 100 µM | MCF7 > 100 µM | SK-MEL-28 > 100 µM | OVCAR-5 > 100 µM | BT-549 > 100 µM | HT-29 > 100 µM | HCC 2998 > 100 µM | LOX IMVI > 100 µM | 786-0 > 100 µM

FC1(F)ON2CCc3ccccc3C2[C@H]1c1ccccc1 (some centres undefined)
inactive: MDA-MB-231 48.9 µM | MDA-MB-435 > 10 µM | NCI-H460 > 10 µM | NCI-H23 > 10 µM | SF-268 > 10 µM | RXF 393 76.4 µM | T47D 55.8 µM | K562 > 10 µM | MCF7 > 10 µM | SK-MEL-28 > 10 µM | OVCAR-5 > 10 µM | BT-549 > 10 µM | HT-29 > 10 µM | HCC 2998 > 10 µM | LOX IMVI 91 µM | 786-0 26.4 µM

Cc1cc(N2CCN(C)CC2)n2nc(-c3ccc(Cl)cc3)nc2n1
inactive: MDA-MB-231 > 100 µM | MDA-MB-435 > 100 µM | NCI-H460 50.7 µM | NCI-H23 > 100 µM | SF-268 > 100 µM | RXF 393 31.5 µM | T47D > 100 µM | K562 60.4 µM | MCF7 > 100 µM | SK-MEL-28 91.8 µM | OVCAR-5 > 100 µM | BT-549 99.1 µM | HOP-92 > 100 µM | HT-29 69.5 µM | LOX IMVI 61.1 µM | 786-0 50.7 µM

Cc1cccc(Br)[n+]1[O-]
inactive: MDA-MB-231 91.6 µM | MDA-MB-435 > 100 µM | NCI-H460 > 100 µM | NCI-H23 > 100 µM | SF-268 > 100 µM | RXF 393 > 100 µM | T47D > 100 µM | K562 > 100 µM | MCF7 > 100 µM | SK-MEL-28 > 100 µM | OVCAR-5 > 100 µM | BT-549 > 100 µM | HOP-92 > 100 µM | HT-29 > 100 µM | LOX IMVI > 100 µM | 786-0 > 100 µM

O=C(/C=C/c1ccc2c(c1)OCO2)NCc1ccco1
inactive: MDA-MB-231 > 100 µM | MDA-MB-435 > 100 µM | NCI-H460 > 100 µM | NCI-H23 > 100 µM | T47D 19.4 µM | K562 82.6 µM | MCF7 39.7 µM | SK-MEL-28 > 100 µM | OVCAR-5 > 100 µM | BT-549 25.9 µM | HOP-92 92.5 µM | HT-29 > 100 µM | HCC 2998 > 100 µM | LOX IMVI > 100 µM | 786-0 > 100 µM

N=C(N)N/N=C/c1c(-c2ccccc2)nc2ccn3c(/C=N/N=C(N)N)c(-c4ccccc4)nc3n12
inactive: MDA-MB-231 > 100 µM | MDA-MB-435 61.2 µM | NCI-H460 32.2 µM | NCI-H23 > 100 µM | SF-268 > 100 µM | RXF 393 > 100 µM | T47D > 100 µM | K562 > 100 µM | MCF7 40.2 µM | SK-MEL-28 39.5 µM | OVCAR-5 37 µM | BT-549 69 µM | HOP-92 > 100 µM | HT-29 34.1 µM | LOX IMVI 48.8 µM | 786-0 82.6 µM

O=C1CC2(CCNCC2)C(=O)N1N1CCCC1
inactive: MDA-MB-231 > 100 µM | MDA-MB-435 > 100 µM | NCI-H23 > 100 µM | RXF 393 > 100 µM | T47D > 100 µM | K562 > 100 µM | MCF7 > 100 µM | OVCAR-5 > 100 µM | BT-549 > 100 µM | HT-29 > 100 µM | HCC 2998 > 100 µM | LOX IMVI > 100 µM | 786-0 > 100 µM

Cc1n[nH]c(=O)n1/N=C/c1ccco1
inactive: MDA-MB-231 > 100 µM | MDA-MB-435 > 100 µM | NCI-H460 > 100 µM | NCI-H23 > 100 µM | SF-268 > 100 µM | RXF 393 > 100 µM | T47D > 100 µM | K562 > 100 µM | MCF7 > 100 µM | SK-MEL-28 > 100 µM | OVCAR-5 > 100 µM | BT-549 > 100 µM | HT-29 > 100 µM | HCC 2998 > 100 µM | 786-0 > 100 µM
